Laboratory results as given in ChEMBL document CHEMBL1955844, “Discovery of a series of imidazopyrazine small molecule inhibitors of the kinase MAPKAPK5, that show activity using in vitro and in vivo models of rheumatoid arthritis” (Bioorg Med Chem Lett, 2012).
pIC50: −log10 of the molar value.

Experiments:
[1] = molecular target: T1, MAP kinase-activated protein kinase 5 (Homo sapiens, UniProt Q8IW41); test: Inhibition of MAPKAPK5 in synovial fibroblast from rheumatoid arthritis patient assessed as inhibition of TNF-alpha-induced MMP1 expression incubated for 30 mins prior to TNFalpha-challenge measured after 48 hrs by ELISA
T1 sequence (Q8IW41 whole entry): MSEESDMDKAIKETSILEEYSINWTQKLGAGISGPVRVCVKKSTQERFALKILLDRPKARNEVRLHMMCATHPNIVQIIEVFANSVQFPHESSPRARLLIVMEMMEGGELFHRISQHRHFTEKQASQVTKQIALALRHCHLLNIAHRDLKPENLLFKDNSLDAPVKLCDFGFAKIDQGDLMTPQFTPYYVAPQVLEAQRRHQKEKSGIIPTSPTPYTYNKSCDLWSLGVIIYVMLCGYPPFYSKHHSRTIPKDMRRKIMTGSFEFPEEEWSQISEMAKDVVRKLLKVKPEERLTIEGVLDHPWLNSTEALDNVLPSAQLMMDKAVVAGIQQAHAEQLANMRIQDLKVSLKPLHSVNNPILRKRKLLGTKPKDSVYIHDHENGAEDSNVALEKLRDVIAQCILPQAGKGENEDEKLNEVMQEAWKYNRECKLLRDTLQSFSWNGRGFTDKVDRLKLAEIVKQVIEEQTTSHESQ

[2] = molecular target: T1, MAP kinase-activated protein kinase 5; test: Inhibition of MAPKAPK5

Row | Compound | pIC50 [1] | pIC50 [2]
1 | NC(=O)c1ccc(-c2cnc(Nc3ccc(N4CCOCC4)cc3)c3nccn23)cc1F | < 5.00 | 5.62
2 | NS(=O)(=O)c1ccc(-c2cnc(Nc3ccc(N4CCOCC4)cc3)c3nccn23)cc1 | < 5.00 | < 5.00
3 | CN(C)c1cc(-c2cnc(Nc3ccc(N4CCOCC4)cc3)c3nccn23)ccn1 | – | < 5.00
4 | NC(=O)c1ncc(-c2cnc(Nc3ccc(N4CCOCC4)cc3)c3nccn23)s1 | < 5.00 | 5.49
5 | CN(c1ccc(N2CCOCC2)cc1)c1ncc(-c2cn[nH]c2)n2ccnc12 | – | < 5.00
6 | c1cn2c(-c3c[nH]nn3)cnc(Nc3ccc(N4CCOCC4)cc3)c2n1 | < 5.00 | 5.83
7 | NC(=O)c1cnc(-c2cnc(Nc3ccc(N4CCOCC4)cc3)c3nccn23)s1 | < 5.00 | 5.55
8 | CCOc1cc(-c2cnc(Nc3ccc(N4CCOCC4)cc3)c3nccn23)ccn1 | – | < 5.00
9 | CN1CCN(c2ccc(Nc3ncc(-c4cc[nH]c(=O)c4)n4ncnc34)cc2)CC1 | – | 5.43
10 | c1cn2c(-c3ccc4[nH]ccc4c3)cnc(Nc3ccc(N4CCOCC4)cc3)c2n1 | – | < 5.00
